# From US7514450B2, “Azabicyclic aryl derivatives” (NeuroSearch A/S, priority 2004, dated 2009)
# pIC50: −log10 of the molar value. Counter-ions that a name gives are not always drawn.
# Molecular target: T1, α7-subtype of nicotinic receptors (Rattus norvegicus, UniProt Q05941)
# T1 construct: Cerebral cortices from male Wistar rats (150-250 g) are homogenised; from tissue; host or cells: rat cerebral cortex membrane homogenate
# Experiment: In vitro inhibition of 3H-α-bungarotoxine binding in rat brain
# Details: rat cerebral cortex homogenate; 3H-α-bungarotoxine 2 nM; 2 hours at 37° C
# T1 sequence (Q05941 23-502): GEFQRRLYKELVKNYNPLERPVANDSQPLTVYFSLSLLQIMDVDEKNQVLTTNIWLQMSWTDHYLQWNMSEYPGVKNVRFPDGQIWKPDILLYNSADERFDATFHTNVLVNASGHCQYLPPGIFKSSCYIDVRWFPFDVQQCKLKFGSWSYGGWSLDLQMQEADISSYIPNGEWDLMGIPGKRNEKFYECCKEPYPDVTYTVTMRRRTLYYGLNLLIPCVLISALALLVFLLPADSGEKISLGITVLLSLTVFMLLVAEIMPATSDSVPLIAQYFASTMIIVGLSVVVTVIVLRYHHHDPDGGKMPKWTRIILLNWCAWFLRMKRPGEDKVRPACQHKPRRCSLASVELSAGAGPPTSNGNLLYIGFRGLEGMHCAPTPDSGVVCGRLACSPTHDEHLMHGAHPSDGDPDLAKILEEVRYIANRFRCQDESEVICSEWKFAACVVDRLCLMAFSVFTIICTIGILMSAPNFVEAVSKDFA
compound,measurement,value
"O=C(Nc1ccc(-c2ccc(C(=O)NC3CN4CCC3CC4)o2)cc1)c1ccccc1 (racemic) [Compound 1, (±)5-(4-Benzoylamino-phenyl)-furan-2-carboxylic acid(1-aza-bicyclo[2.2.2]oct-3-yl)-amide hydrochloric acid salt]",pIC50,7.10
